≈ marks a conversion by molar mass, not a printed value. Numbered stars: 1 amine (or outer) side, 2 acyl side, 3 side chain; on linkers, the order of the positions; unused ones are H or OH. Bridge positions count the residues as written; N and C are the ends. Square brackets hold non-standard residues; d marks the D form. Peptide text beside a SMILES is read from it. * marks the point of attachment. Orn(4R-OH,5R-OH) = O=C([C@H](C[C@@H](O)[C@@H](O)N[*:3])N[*:1])[*:2]; hTyr(3S-OH,4S-OH) = N[C@H](C(=O)O)[C@H](O)[C@@H](O)c1ccc(O)cc1; X16 = COC(=O)CCCCCNC(=O)C[C@@H](O)[C@H](N[*:1])C(=O)[*:2]; X8 = O=C(O)CCCCCNC(=O)C[C@@H](O)[C@H](N[*:1])C(=O)[*:2]; Orn(4R-OH) = O=C([C@H](C[C@@H](O)CN[*:3])N[*:1])[*:2]; X15 = NCCCCCCNC(=O)C[C@@H](O)[C@H](N[*:1])C(=O)[*:2]; X6 = C[N+](C)(C)CC[C@@H](O)[C@H](N[*:1])C(=O)[*:2]; hTyr(3R-OH) = N[C@H](C(=O)O)[C@H](O)Cc1ccc(O)cc1; X12 = CC(=O)NCC[C@@H](O)[C@H](N[*:1])C(=O)[*:2]; X11 = COC(=O)C[C@@H](O)[C@H](N[*:1])C(=O)[*:2]; X14 = NNC(=O)C[C@@H](O)[C@H](N[*:1])C(=O)[*:2]; X7 = CN(C)CC[C@@H](O)[C@H](N[*:1])C(=O)[*:2]; Gln(3R-OH) = NC(=O)C[C@@H](O)[C@H](N)C(=O)O; X17 = O=C([C@@H](N[*:1])[C@H](O)CCO)[*:2]; X9 = N#CC[C@@H](O)[C@H](N[*:1])C(=O)[*:2]; Orn(3R-OH) = NCC[C@@H](O)[C@H](N)C(=O)O; Pro(3S-OH) = O=C(O)[C@H]1NCC[C@@H]1O; Hyp = O=C(O)[C@@H]1C[C@@H](O)CN1; X1 = CCC(C)CC(C)CCCCCCCCC(=O)*
What was measured:
Beta-1,3-glucan synthase = Beta-1,3-glucan synthase (Candida albicans, UniProt O13428); experiment: Tested for inhibition of Beta-1,3-glucan synthase using a crude membrane of Candida albicans (MY 1208).
Candida parapsilosis = experiment: In vitro Fungicidal activity (MFC) against Candida parapsilosis (MY 1010).; assay type: functional; details: Lodderomyces parapsilosis
Candida albicans = experiment: In vitro Fungicidal activity (MFC) against Candida albicans (MY 1055).; assay type: functional
[1] = In vivo anti-Candida activity was determined in a mouse model of disseminated candidiasis (TOKA).; assay type: functional

Sequence of Beta-1,3-glucan synthase (O13428 whole entry): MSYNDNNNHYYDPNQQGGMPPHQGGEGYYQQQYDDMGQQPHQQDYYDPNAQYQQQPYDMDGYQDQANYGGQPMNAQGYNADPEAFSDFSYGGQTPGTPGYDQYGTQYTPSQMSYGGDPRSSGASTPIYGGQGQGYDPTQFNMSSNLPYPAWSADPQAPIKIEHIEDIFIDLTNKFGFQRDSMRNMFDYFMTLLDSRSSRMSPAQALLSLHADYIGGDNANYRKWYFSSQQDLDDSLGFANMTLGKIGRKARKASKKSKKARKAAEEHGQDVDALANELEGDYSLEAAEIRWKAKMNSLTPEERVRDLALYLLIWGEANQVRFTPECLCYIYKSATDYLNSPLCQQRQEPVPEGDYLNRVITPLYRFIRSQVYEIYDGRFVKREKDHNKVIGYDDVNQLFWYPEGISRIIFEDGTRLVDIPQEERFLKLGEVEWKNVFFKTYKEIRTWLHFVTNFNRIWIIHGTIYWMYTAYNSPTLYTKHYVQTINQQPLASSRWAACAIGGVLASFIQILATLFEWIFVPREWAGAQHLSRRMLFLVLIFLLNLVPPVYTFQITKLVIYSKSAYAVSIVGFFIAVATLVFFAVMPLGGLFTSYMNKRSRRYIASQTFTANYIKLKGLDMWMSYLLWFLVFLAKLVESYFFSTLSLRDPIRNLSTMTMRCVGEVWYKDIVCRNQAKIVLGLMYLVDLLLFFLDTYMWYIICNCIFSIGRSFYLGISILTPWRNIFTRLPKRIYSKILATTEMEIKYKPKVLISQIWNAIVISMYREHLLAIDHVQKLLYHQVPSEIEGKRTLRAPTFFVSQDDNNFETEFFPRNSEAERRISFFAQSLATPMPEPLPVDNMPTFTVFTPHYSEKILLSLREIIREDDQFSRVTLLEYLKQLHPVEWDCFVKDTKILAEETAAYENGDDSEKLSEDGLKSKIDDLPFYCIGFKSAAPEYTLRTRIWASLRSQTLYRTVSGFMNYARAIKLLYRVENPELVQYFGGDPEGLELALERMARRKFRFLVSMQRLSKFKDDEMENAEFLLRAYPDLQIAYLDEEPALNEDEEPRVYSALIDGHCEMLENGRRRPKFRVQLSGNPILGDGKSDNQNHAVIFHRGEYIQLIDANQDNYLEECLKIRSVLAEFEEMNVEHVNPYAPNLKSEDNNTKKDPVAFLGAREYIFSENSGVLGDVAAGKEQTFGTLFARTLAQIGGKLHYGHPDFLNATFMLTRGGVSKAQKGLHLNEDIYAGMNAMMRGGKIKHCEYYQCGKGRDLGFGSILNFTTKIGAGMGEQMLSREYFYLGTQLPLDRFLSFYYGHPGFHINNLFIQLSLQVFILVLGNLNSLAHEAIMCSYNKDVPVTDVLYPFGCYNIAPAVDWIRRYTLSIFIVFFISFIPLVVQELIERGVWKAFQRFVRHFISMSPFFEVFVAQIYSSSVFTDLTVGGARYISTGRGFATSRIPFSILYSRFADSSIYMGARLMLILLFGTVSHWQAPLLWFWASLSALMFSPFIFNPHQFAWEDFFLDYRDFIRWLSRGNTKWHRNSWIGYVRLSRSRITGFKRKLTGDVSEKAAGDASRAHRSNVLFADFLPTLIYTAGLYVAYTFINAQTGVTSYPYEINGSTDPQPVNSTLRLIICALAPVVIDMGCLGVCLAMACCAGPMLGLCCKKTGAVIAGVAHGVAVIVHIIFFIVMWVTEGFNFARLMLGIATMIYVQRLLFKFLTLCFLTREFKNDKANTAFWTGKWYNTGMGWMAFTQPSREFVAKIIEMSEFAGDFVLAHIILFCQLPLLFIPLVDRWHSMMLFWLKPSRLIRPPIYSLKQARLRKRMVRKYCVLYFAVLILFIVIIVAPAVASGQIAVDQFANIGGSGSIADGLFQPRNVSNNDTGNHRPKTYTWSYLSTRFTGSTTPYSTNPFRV

Compound: CCC(C)CC(C)CCCCCCCCC(=O)N[C@H]1C[C@@H](O)[C@@H](O)NC(=O)[C@@H]2[C@@H](O)CCN2C(=O)[C@H]([C@H](O)CCN(C)C)NC(=O)[C@H]([C@H](O)[C@@H](O)c2ccc(O)cc2)NC(=O)[C@@H]2C[C@@H](O)CN2C(=O)[C@H]([C@@H](C)O)NC1=O (stereo partly drawn) (X1-[Orn(4R-OH,5R-OH)]T[Hyp][hTyr(3S-OH,4S-OH)][X7][Pro(3S-OH)]; lactam 1-C)
- IC50 (Beta-1,3-glucan synthase): 5 nM
- MFC (Candida parapsilosis): 2 µg/mL (≈ 1.85 µM)
- MFC (Candida albicans): 1 µg/mL (≈ 0.927 µM)
- ED99.9 [1]: 1.5 mg/kg

Compound: CCC(C)CC(C)CCCCCCCCC(=O)N[C@H]1C[C@@H](O)[C@@H](O)NC(=O)[C@@H]2[C@@H](O)CCN2C(=O)[C@H]([C@H](O)CCN)NC(=O)[C@H]([C@H](O)[C@@H](O)c2ccc(O)cc2)NC(=O)[C@@H]2C[C@@H](O)CN2C(=O)[C@H]([C@@H](C)O)NC1=O (stereo partly drawn) (X1-[Orn(4R-OH,5R-OH)]T[Hyp][hTyr(3S-OH,4S-OH)][Orn(3R-OH)][Pro(3S-OH)]; lactam 1-C)
- IC50 (Beta-1,3-glucan synthase): 10 nM
- MFC (Candida parapsilosis): 0.5 µg/mL (≈ 0.476 µM)
- MFC (Candida albicans): < 0.06 µg/mL
- ED99.9 [1]: 0.375 mg/kg

Compound: CCC(C)CC(C)CCCCCCCCC(=O)N[C@H]1C[C@@H](O)CNC(=O)[C@@H]2[C@@H](O)CCN2C(=O)[C@H]([C@H](O)CC(=O)NCCCCCC(=O)OC)NC(=O)[C@H]([C@H](O)Cc2ccc(O)cc2)NC(=O)[C@@H]2C[C@@H](O)CN2C(=O)[C@H]([C@@H](C)O)NC1=O (stereo partly drawn) (X1-[Orn(4R-OH)]T[Hyp][hTyr(3R-OH)][X16][Pro(3S-OH)]; lactam 1-C)
- IC50 (Beta-1,3-glucan synthase): 250 nM
- MFC (Candida parapsilosis): > 128 µg/mL
- MFC (Candida albicans): 4 µg/mL (≈ 3.44 µM)

Compound: CCC(C)CC(C)CCCCCCCCC(=O)N[C@H]1C[C@@H](O)CNC(=O)[C@@H]2[C@@H](O)CCN2C(=O)[C@H]([C@H](O)CC(=O)OC)NC(=O)[C@H]([C@H](O)Cc2ccc(O)cc2)NC(=O)[C@@H]2C[C@@H](O)CN2C(=O)[C@H]([C@@H](C)O)NC1=O (stereo partly drawn) (X1-[Orn(4R-OH)]T[Hyp][hTyr(3R-OH)][X11][Pro(3S-OH)]; lactam 1-C)
- IC50 (Beta-1,3-glucan synthase): 180 nM
- MFC (Candida parapsilosis): 4 µg/mL (≈ 3.82 µM)
- MFC (Candida albicans): 0.5 µg/mL (≈ 0.477 µM)
- ED99.9 [1]: >6 mg/kg

Compound: CCC(C)CC(C)CCCCCCCCC(=O)N[C@H]1C[C@@H](O)[C@@H](O)NC(=O)[C@@H]2[C@@H](O)CCN2C(=O)[C@H]([C@H](O)CCNC(C)=O)NC(=O)[C@H]([C@H](O)[C@@H](O)c2ccc(O)cc2)NC(=O)[C@@H]2C[C@@H](O)CN2C(=O)[C@H]([C@@H](C)O)NC1=O (stereo partly drawn) (X1-[Orn(4R-OH,5R-OH)]T[Hyp][hTyr(3S-OH,4S-OH)][X12][Pro(3S-OH)]; lactam 1-C)
- IC50 (Beta-1,3-glucan synthase): 300 nM
- MFC (Candida parapsilosis): 8 µg/mL (≈ 7.32 µM)
- MFC (Candida albicans): 4 µg/mL (≈ 3.66 µM)
- ED99.9 [1]: 12 mg/kg

Compound: CCC(C)CC(C)CCCCCCCCC(=O)N[C@H]1C[C@@H](O)CNC(=O)[C@@H]2[C@@H](O)CCN2C(=O)[C@H]([C@H](O)CC(=O)NCCCCCC(=O)O)NC(=O)[C@H]([C@H](O)Cc2ccc(O)cc2)NC(=O)[C@@H]2C[C@@H](O)CN2C(=O)[C@H]([C@@H](C)O)NC1=O (stereo partly drawn) (X1-[Orn(4R-OH)]T[Hyp][hTyr(3R-OH)][X8][Pro(3S-OH)]; lactam 1-C)
- IC50 (Beta-1,3-glucan synthase): 900 nM
- MFC (Candida parapsilosis): 64 µg/mL (≈ 55.8 µM)
- MFC (Candida albicans): 2 µg/mL (≈ 1.74 µM)

Compound: CCC(C)CC(C)CCCCCCCCC(=O)N[C@H]1C[C@@H](O)[C@@H](O)NC(=O)[C@@H]2[C@@H](O)CCN2C(=O)[C@H]([C@H](O)CC(N)=O)NC(=O)[C@H]([C@H](O)[C@@H](O)c2ccc(O)cc2)NC(=O)[C@@H]2C[C@@H](O)CN2C(=O)[C@H]([C@@H](C)O)NC1=O (stereo partly drawn) (X1-[Orn(4R-OH,5R-OH)]T[Hyp][hTyr(3S-OH,4S-OH)][Gln(3R-OH)][Pro(3S-OH)]; lactam 1-C)
- MFC (Candida parapsilosis): 1 µg/mL (≈ 0.939 µM)
- MFC (Candida albicans): 0.25 µg/mL (≈ 0.235 µM)
- ED99.9 [1]: 6 mg/kg

Compound: CCC(C)CC(C)CCCCCCCCC(=O)N[C@H]1C[C@@H](O)[C@@H](O)NC(=O)[C@@H]2[C@@H](O)CCN2C(=O)[C@H]([C@H](O)CC[N+](C)(C)C)NC(=O)[C@H]([C@H](O)[C@@H](O)c2ccc(O)cc2)NC(=O)[C@@H]2C[C@@H](O)CN2C(=O)[C@H]([C@@H](C)O)NC1=O (stereo partly drawn) (X1-[Orn(4R-OH,5R-OH)]T[Hyp][hTyr(3S-OH,4S-OH)][X6][Pro(3S-OH)]; lactam 1-C)
- IC50 (Beta-1,3-glucan synthase): 9 nM
- MFC (Candida parapsilosis): 0.5 µg/mL
- MFC (Candida albicans): 0.125 µg/mL
- ED99.9 [1]: 0.375 mg/kg

Compound: CCC(C)CC(C)CCCCCCCCC(=O)N[C@H]1C[C@@H](O)CNC(=O)[C@@H]2[C@@H](O)CCN2C(=O)[C@H]([C@H](O)CC(=O)NN)NC(=O)[C@H]([C@H](O)Cc2ccc(O)cc2)NC(=O)[C@@H]2C[C@@H](O)CN2C(=O)[C@H]([C@@H](C)O)NC1=O (stereo partly drawn) (X1-[Orn(4R-OH)]T[Hyp][hTyr(3R-OH)][X14][Pro(3S-OH)]; lactam 1-C)
- IC50 (Beta-1,3-glucan synthase): 110 nM
- MFC (Candida parapsilosis): 8 µg/mL (≈ 7.63 µM)
- MFC (Candida albicans): 4 µg/mL (≈ 3.82 µM)

Compound: CCC(C)CC(C)CCCCCCCCC(=O)N[C@H]1C[C@@H](O)CNC(=O)[C@@H]2[C@@H](O)CCN2C(=O)[C@H]([C@H](O)CC(=O)NCCCCCCN)NC(=O)[C@H]([C@H](O)Cc2ccc(O)cc2)NC(=O)[C@@H]2C[C@@H](O)CN2C(=O)[C@H]([C@@H](C)O)NC1=O (stereo partly drawn) (X1-[Orn(4R-OH)]T[Hyp][hTyr(3R-OH)][X15][Pro(3S-OH)]; lactam 1-C)
- IC50 (Beta-1,3-glucan synthase): 38 nM
- MFC (Candida albicans): 0.5 µg/mL (≈ 0.442 µM)
- ED99.9 [1]: >6 mg/kg

Compound: CCC(C)CC(C)CCCCCCCCC(=O)N[C@H]1C[C@@H](O)CNC(=O)[C@@H]2[C@@H](O)CCN2C(=O)[C@H]([C@H](O)CCN)NC(=O)[C@H]([C@H](O)Cc2ccc(O)cc2)NC(=O)[C@@H]2C[C@@H](O)CN2C(=O)[C@H]([C@@H](C)O)NC1=O (stereo partly drawn) (X1-[Orn(4R-OH)]T[Hyp][hTyr(3R-OH)][Orn(3R-OH)][Pro(3S-OH)]; lactam 1-C)
- IC50 (Beta-1,3-glucan synthase): 10 nM
- MFC (Candida albicans): 0.125 µg/mL (≈ 0.123 µM)
- ED99.9 [1]: 1.5 mg/kg

Compound: CCC(C)CC(C)CCCCCCCCC(=O)N[C@H]1C[C@@H](O)CNC(=O)[C@@H]2[C@@H](O)CCN2C(=O)[C@H]([C@H](O)CCO)NC(=O)[C@H]([C@H](O)Cc2ccc(O)cc2)NC(=O)[C@@H]2C[C@@H](O)CN2C(=O)[C@H]([C@@H](C)O)NC1=O (stereo partly drawn) (X1-[Orn(4R-OH)]T[Hyp][hTyr(3R-OH)][X17][Pro(3S-OH)]; lactam 1-C)
- IC50 (Beta-1,3-glucan synthase): 200 nM
- MFC (Candida parapsilosis): 8 µg/mL (≈ 7.84 µM)
- MFC (Candida albicans): 1 µg/mL (≈ 0.98 µM)

Compound: CCC(C)CC(C)CCCCCCCCC(=O)N[C@H]1C[C@@H](O)CNC(=O)[C@@H]2[C@@H](O)CCN2C(=O)[C@H]([C@H](O)CC#N)NC(=O)[C@H]([C@H](O)Cc2ccc(O)cc2)NC(=O)[C@@H]2C[C@@H](O)CN2C(=O)[C@H]([C@@H](C)O)NC1=O (stereo partly drawn) (X1-[Orn(4R-OH)]T[Hyp][hTyr(3R-OH)][X9][Pro(3S-OH)]; lactam 1-C)
- IC50 (Beta-1,3-glucan synthase): 100 nM
- MFC (Candida parapsilosis): 4 µg/mL (≈ 3.94 µM)
- MFC (Candida albicans): 1 µg/mL (≈ 0.985 µM)

Compound: CCC(C)CC(C)CCCCCCCCC(=O)N[C@H]1C[C@@H](O)[C@@H](O)NC(=O)[C@@H]2[C@@H](O)CCN2C(=O)[C@H]([C@H](O)CC#N)NC(=O)[C@H]([C@H](O)[C@@H](O)c2ccc(O)cc2)NC(=O)[C@@H]2C[C@@H](O)CN2C(=O)[C@H]([C@@H](C)O)NC1=O (stereo partly drawn) (X1-[Orn(4R-OH,5R-OH)]T[Hyp][hTyr(3S-OH,4S-OH)][X9][Pro(3S-OH)]; lactam 1-C)
- IC50 (Beta-1,3-glucan synthase): 100 nM
- MFC (Candida parapsilosis): 2 µg/mL (≈ 1.91 µM)
- MFC (Candida albicans): 2 µg/mL (≈ 1.91 µM)
